From US10683293B2, “Optionally fused heterocyclyl-substituted derivatives of pyrimidine useful for the treatment of inflammatory, metabolic, oncologic and autoimmune diseases” (NUEVOLUTION A/S, priority 2014, dated 2020)

Experiments:
[1] = target: T1, ligand binding domain of human RORγ (Homo sapiens, UniProt P51449); test: RORγ Reporter Assay (Gal4); format: cell-based; conditions: for inhibition at 1 µM: HEK-293T, 1 μM test compound, HEK293t RORγ reporter cells, 24 hour, read-out: Gal4 activity range @ 1 μM (% inhibition); for Gal4 activity range @ 0.1 μM (% inhibition): RORγ Reporter Assay (Gal4), HEK293t reporter cells, compound at 0.1 μM, values are activity range bounds
T1 construct: host or cells: HEK293t
T1 sequence (P51449 269-508 limits assumed): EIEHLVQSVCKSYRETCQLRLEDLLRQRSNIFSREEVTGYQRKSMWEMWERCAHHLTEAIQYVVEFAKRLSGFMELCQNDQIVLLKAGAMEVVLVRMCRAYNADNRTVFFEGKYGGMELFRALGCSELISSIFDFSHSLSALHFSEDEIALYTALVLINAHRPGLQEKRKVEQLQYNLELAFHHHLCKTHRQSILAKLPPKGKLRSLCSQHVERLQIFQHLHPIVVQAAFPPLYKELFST
Procedure: The activity of the compounds was evaluated using a Fluorescence Polarization (FP) Assay and, RORγ Reporter assay (also referred to as Gal4 assay). The FP assay is an in vitro assay monitoring binding within the ligand binding pocket. The RORγ and the Th17 assays (another suitable assay) are both cell-based assays monitoring functional activity of the compound assayed.
RORγ Reporter Assay (Gal4)
Cell-based RORγ functional assays were performed using a commercially available assay product (INDIGO Biosciences, State College, Pa., USA; product # IB04001). The RORγ reporter cells are HEK293t cells transfected with one vector that provides high level constitutive expression of a hybrid protein comprised of the yeast Gal4-DNA binding domain fused to the ligand binding domain of human RORγ, and a second vector comprising the firefly luciferase cDNA functionally linked to the upstream activation sequence (UAS) of yeast Gal4. A suspension of RORγ Reporter Cells was prepared using the protocol and culture medium provided in the kit product, and 100 μl of the Reporter Cell suspension was then dispensed into wells of a white, collagen-treated, 96-well assay plate. Concentrated stocks of test compounds were prepared in DMSO, then further diluted using media provided in the kit to generate ‘2×-concentration’ treatment media. 100 μl of medium for each respective treatment concentration dispensed into triplicate assay wells, thereby combining with the reporter cells. All media formulations contained 10% charcoal stripped Fetal Bovine Serum, but are otherwise proprietary to INDIGO Biosciences. Final treatment concentrations for each test compound were 1,000 nM and 100 nM, each with 0.1% residual DMSO. Separate control treatments were media supplemented with vehicle only (0.1% DMSO) to determine the constitutive level of RORγ activity in the reporter cells, and the reference inverse-agonist ursolic acid (f.c. 6,000 nM to 8.2 nM in 3-fold decrements) to establish a positive control inverse-agonist dose response. Assay plates were placed in a 37° C., 5% CO2, 85% humidity incubator for 24 hour. Treatment media were then discarded, 100 μl of luciferase detection reagent was added to each well, and relative light units (RLUs) were quantified from each assay well using a plate reading luminometer. Values of average RLU+/−standard deviation were computed for all treatment sets, followed by the calculations of fold-reduction: [Average RLUVehicle/Average RLUTest Cmpd]. Percent-reduction of RORγ activity in response to respective test compound treatments was calculated: [100*(1−[Ave RLUTest Cmpd/Ave RLUVehicle)] where the theoretical minimum reduction (0% reduction) derives from Vehicle treatment only, no treatment compound. In some aspects it may be of interest to provide compounds with selective modulation of RORγ for example compounds that are selective to RORγ over RORα, compounds that are selective for RORγ versus RORPβ, and compounds that are selective for RORγ versus BOTH RORα and RORPβ. It may also be of interest to provide compounds that are selective for RORγ versus further nuclear hormone receptors such as CAR1, FXR, GR, LXRα, LXRβ, PPARα, PXR, RARα, RXRα, TRα, VDR. It is apparent to those skilled in the art that these nuclear hormone receptors are merely examples, and that selectivity against other nuclear receptors may also be of interest. It may for example be of interest to provide compounds that modulate RORγ and one or more further nuclear hormone receptors, as well as compounds that modulate both RORγ and RORα, or RORγ and RORβ. It may also be of interest to provide compounds that modulate RORγ and BOTH RORα and RORP, as well as compounds that modulate both RORγ and one or more further nuclear hormone receptors such as CAR1, FXR, GR, LXRα, LXRβ, PPARα, PXR, RARα, RXRα, TRα, VDR. It is apparent to those skilled in the art that these nuclear hormone receptors are merely examples, and that modulation of even other nuclear receptors may also be of interest. […]

[2] = target: T2, human RORγt (Ligand Binding Domain) (Homo sapiens, UniProt P51449); test: Fluorescence Polarization (FP) Assay; conditions: 100 nM human RORγt LBD, 25 nM TAMRA probe, values are activity range bounds
T2 construct: purchased Crelux (Planegg, Germany) batch no PC5032-1
T2 sequence (P51449 269-508 limits assumed): T1 sequence (P51449 269-508 limits assumed)
In short: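 In vitro fluorescence polarization binding assay on the RORγt ligand-binding pocket. A TAMRA-labelled RORγt ligand probe (MW 910 g/mol) was used, with DMSO as negative control.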

SMILES: NC(=O)Cc1ccc(CNc2ncnc(N(C3CC3)C(c3ccc(C(F)(F)F)cc3)C3CCC3)c2F)cc1 (centres unmarked) [Example A17, 2-[4-[[[6-[[cyclobutyl-[4-(trifluoromethyl)phenyl]methyl]-cyclopropyl-amino]-5-fluoro-pyrimidin-4-yl]amino]methyl]phenyl]acetamide]
- inhibition at 1 µM [1]: > 50%
- Gal4 activity range @ 0.1 μM (% inhibition) [1]: >20 % inhibition
- IC50 [2]: < 2000 nM

SMILES: NC(=O)Cc1ccc(CNc2ncnc(N(Cc3ccc(C(F)(F)F)cc3)CC3CC3)c2F)cc1 [Example A18, 2-[4-[[[6-[cyclopropylmethyl-[[4-(trifluoromethyl)phenyl]methyl]amino]-5-fluoro-pyrimidin-4-yl]amino]methyl]phenyl]acetamide]
- inhibition at 1 µM [1]: > 80%
- Gal4 activity range @ 0.1 μM (% inhibition) [1]: >50 % inhibition
- IC50 [2]: < 500 nM

SMILES: CN(Cc1ccc(C(F)(F)F)cc1)c1ncnc(NCc2ccc(CC(N)=O)cc2)c1F [Example A19, 2-[4-[[[5-fluoro-6-[methyl-[[4-(trifluoromethyl)phenyl]methyl]amino]pyrimidin-4-yl]amino]methyl]phenyl]acetamide]
- inhibition at 1 µM [1]: > 80%
- Gal4 activity range @ 0.1 μM (% inhibition) [1]: >20 % inhibition
- IC50 [2]: < 500 nM

SMILES: CN(Cc1ccc(OC(F)(F)F)cc1)c1ncnc(NCc2ccc(CC(N)=O)cc2)c1F [Example A20, 2-[4-[[[5-fluoro-6-[methyl-[[4-(trifluoromethoxy)phenyl]methyl]amino]pyrimidin-4-yl]amino]methyl]phenyl]acetamide]
- inhibition at 1 µM [1]: > 50%
- Gal4 activity range @ 0.1 μM (% inhibition) [1]: >20 % inhibition
- IC50 [2]: < 2000 nM

SMILES: NC(=O)Cc1ccc(CNc2ncnc(N(Cc3ccccc3)C3CC3)c2F)cc1 [Example A42, 2-[4-[[[6-[benzyl(cyclopropyl)amino]-5-fluoro-pyrimidin-4-yl]amino]methyl]phenyl]acetamide]
- inhibition at 1 µM [1]: > 50%
- Gal4 activity range @ 0.1 μM (% inhibition) [1]: >20 % inhibition
- IC50 [2]: < 500 nM

SMILES: CN(Cc1ccc(-n2cccn2)cc1)c1ncnc(NCc2ccc(CC(N)=O)cc2)c1F [Example A52, 2-[4-[[[5-fluoro-6-[methyl-[(4-pyrazol-1-ylphenyl)methyl]amino]pyrimidin-4-yl]amino]methyl]phenyl]acetamide]
- inhibition at 1 µM [1]: > 50%
- Gal4 activity range @ 0.1 μM (% inhibition) [1]: >0 % inhibition
- IC50 [2]: < 500 nM

SMILES: CC(C)c1ccc(CN(c2ncnc(NCc3ccc(CC(N)=O)cc3)c2F)C2CC2)cc1 [Example A53, 2-[4-[[[6-[cyclopropyl-[(4-isopropylphenyl)methyl]amino]-5-fluoro-pyrimidin-4-yl]amino]methyl]phenyl]acetamide]
- inhibition at 1 µM [1]: > 80%
- Gal4 activity range @ 0.1 μM (% inhibition) [1]: >80 % inhibition
- IC50 [2]: < 500 nM

SMILES: CCOc1ccc(CN(c2ncnc(NCc3ccc(CC(N)=O)cc3)c2F)C2CC2)cc1 [Example A54, 2-[4-[[[6-[cyclopropyl-[(4-ethoxyphenyl)methyl]amino]-5-fluoro-pyrimidin-4-yl]amino]methyl]phenyl]acetamide]
- inhibition at 1 µM [1]: > 80%
- Gal4 activity range @ 0.1 μM (% inhibition) [1]: >50 % inhibition
- IC50 [2]: < 500 nM

SMILES: COc1cccc(CN(c2ncnc(NCc3ccc(CC(N)=O)cc3)c2F)C2CC2)c1 [Example A55, 2-[4-[[[6-[cyclopropyl-[(3-methoxyphenyl)methyl]amino]-5-fluoro-pyrimidin-4-yl]amino]methyl]phenyl]acetamide]
- inhibition at 1 µM [1]: > 0%
- IC50 [2]: < 500 nM

SMILES: OCC1(Cn2ccc3c(N(Cc4ccc(C(F)(F)F)cc4)C4CC4)ncnc32)COC1 [Example A56, [3-[[4-[cyclopropyl-[[4-(trifluoromethyl)phenyl]methyl]amino]pyrrolo[2,3-d]pyrimidin-7-yl]methyl]oxetan-3-yl]methanol]
- inhibition at 1 µM [1]: > 80%
- Gal4 activity range @ 0.1 μM (% inhibition) [1]: >80 % inhibition
- IC50 [2]: < 500 nM

SMILES: O=S(=O)(N[C@H]1CC[C@H](CNc2ncnc(N(Cc3ccc(C(F)(F)F)cc3)C3CC3)c2F)CC1)C(F)(F)F [Example A57, N-[4-[[[6-[cyclopropyl-[[4-(trifluoromethyl)phenyl]methyl]amino]-5-fluoro-pyrimidin-4-yl]amino]methyl]cyclohexyl]-1,1,1-trifluoro-methanesulfonamide]
- inhibition at 1 µM [1]: > 80%
- Gal4 activity range @ 0.1 μM (% inhibition) [1]: >50 % inhibition
- IC50 [2]: < 500 nM

SMILES: CN(Cc1cccc(-n2cccn2)c1)c1ncnc(NCc2ccc(CC(N)=O)cc2)c1F [Example A58, 2-[4-[[[5-fluoro-6-[methyl-[(3-pyrazol-1-ylphenyl)methyl]amino]pyrimidin-4-yl]amino]methyl]phenyl]acetamide]
- inhibition at 1 µM [1]: > 80%
- Gal4 activity range @ 0.1 μM (% inhibition) [1]: >20 % inhibition
- IC50 [2]: < 500 nM

SMILES: CS(=O)(=O)Nc1ccc(CNc2ncnc(N(Cc3ccc(C(F)(F)F)cc3)C3CC3)c2F)cc1 [Example A59, N-[4-[[[6-[cyclopropyl-[[4-(trifluoromethyl)phenyl]methyl]amino]-5-fluoro-pyrimidin-4-yl]amino]methyl]phenyl]methane-sulfonamide]
- inhibition at 1 µM [1]: > 80%
- Gal4 activity range @ 0.1 μM (% inhibition) [1]: >80 % inhibition
- IC50 [2]: < 500 nM

SMILES: O=S(=O)(Nc1ccc(CNc2ncnc(N(Cc3ccc(C(F)(F)F)cc3)C3CC3)c2F)cc1)C(F)(F)F [Example A60, N-[4-[[[6-[cyclopropyl-[[4-(trifluoromethyl)phenyl]methyl]amino]-5-fluoro-pyrimidin-4-yl]amino]methyl]phenyl]-1,1,1-trifluoro-methanesulfonamide]
- inhibition at 1 µM [1]: > 80%
- Gal4 activity range @ 0.1 μM (% inhibition) [1]: >0 % inhibition
- IC50 [2]: < 500 nM

SMILES: Fc1c(NC[C@H]2CC[C@H](Cc3nnn[nH]3)CC2)ncnc1N(Cc1ccc(C(F)(F)F)cc1)C1CC1 [Example A61, N4-cyclopropyl-5-fluoro-N6-[[4-(1H-tetrazol-5-ylmethyl)cyclohexyl]methyl]-N4-[[4-(trifluoromethyl)phenyl]methyl] pyrimidine-4,6-diamine]
- inhibition at 1 µM [1]: > 80%
- Gal4 activity range @ 0.1 μM (% inhibition) [1]: >20 % inhibition
- IC50 [2]: < 500 nM

SMILES: N#CC[C@H]1CC[C@H](CNc2ncnc(N(Cc3ccc(C(F)(F)F)cc3)C3CC3)c2F)CC1 [Example A62, 2-[4-[[[6-[cyclopropyl-[[4-(trifluoromethyl)phenyl]methyl]amino]-5-fluoro-pyrimidin-4-yl]amino]methyl]cyclohexyl] acetonitrile]
- inhibition at 1 µM [1]: > 80%
- Gal4 activity range @ 0.1 μM (% inhibition) [1]: >80 % inhibition
- IC50 [2]: < 500 nM

SMILES: CS(=O)(=O)NCC1(CNc2ncnc(N(Cc3ccc(C(F)(F)F)cc3)C3CC3)c2F)CCOCC1 [Example A63, N-[[4-[[[6-[cyclopropyl-[[4-(trifluoromethyl)phenyl]methyl]amino]-5-fluoro-pyrimidin-4-yl]amino]methyl]tetrahydropyran-4-yl]methyl]methanesulfonamide]
- inhibition at 1 µM [1]: > 80%
- Gal4 activity range @ 0.1 μM (% inhibition) [1]: >80 % inhibition
- IC50 [2]: < 500 nM
